Reference: PubChem BioAssay AID2060903 (Molecular Pharmacology Branch, DTP, NCI, 2025)

System: 377384-186-R-J1-PDC complex spheroid viability
Assay: Anticancer human tumor 377384-186-R-J1-PDC patient-derived pancreatic carcinoma cell line growth inhibition [RAS]
Settings: for IC50: curve of first compound; for viability, T/C: stronger effect = lower value; active = viability on the fitted dose curve at most 10% of control; inactive = the rest
Outline: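 Agents were tested in combination matrices in half-log decrements from a top concentration at or near clinical Cmax (10 microM if undetermined). Targets were multi-cell spheroids of tumour lines plus HUVEC and MSC stromal cells.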

[1] = second compound 0.0316 µM, first compound 0.00316 µM
[2] = second compound 0.0316 µM, first compound 0.01 µM
[3] = second compound 0.0316 µM, first compound 0.0316 µM
[4] = second compound 0.0316 µM, first compound 0.1 µM
[5] = second compound 0.0316 µM, first compound 0.316 µM
[6] = second compound 0.0316 µM, first compound 1 µM
[7] = second compound 0.1 µM, first compound 0.00316 µM
[8] = second compound 0.1 µM, first compound 0.01 µM
[9] = second compound 0.1 µM, first compound 0.0316 µM
[10] = second compound 0.1 µM, first compound 0.1 µM
[11] = second compound 0.1 µM, first compound 0.316 µM
[12] = second compound 0.1 µM, first compound 1 µM
[13] = second compound 0.316 µM, first compound 0.00316 µM
[14] = second compound 0.316 µM, first compound 0.01 µM
[15] = second compound 0.316 µM, first compound 0.0316 µM
[16] = second compound 0.316 µM, first compound 0.1 µM
[17] = second compound 0.316 µM, first compound 0.316 µM
[18] = second compound 0.316 µM, first compound 1 µM
[19] = second compound 1 µM, first compound 0.00316 µM
[20] = second compound 1 µM, first compound 0.01 µM
[21] = second compound 1 µM, first compound 0.0316 µM
[22] = second compound 1 µM, first compound 0.1 µM
[23] = second compound 1 µM, first compound 0.316 µM
[24] = second compound 1 µM, first compound 1 µM
[25] = second compound 0.0316 µM, first compound 0.000949 µM
[26] = second compound 0.0316 µM, first compound 0.003 µM
[27] = second compound 0.0316 µM, first compound 0.00949 µM
[28] = second compound 0.0316 µM, first compound 0.03 µM
[29] = second compound 0.0316 µM, first compound 0.0949 µM
[30] = second compound 0.0316 µM, first compound 0.3 µM
[31] = second compound 0.1 µM, first compound 0.000949 µM
[32] = second compound 0.1 µM, first compound 0.003 µM
[33] = second compound 0.1 µM, first compound 0.00949 µM
[34] = second compound 0.1 µM, first compound 0.03 µM
[35] = second compound 0.1 µM, first compound 0.0949 µM
[36] = second compound 0.1 µM, first compound 0.3 µM
[37] = second compound 0.316 µM, first compound 0.000949 µM
[38] = second compound 0.316 µM, first compound 0.003 µM
[39] = second compound 0.316 µM, first compound 0.00949 µM
[40] = second compound 0.316 µM, first compound 0.03 µM
[41] = second compound 0.316 µM, first compound 0.0949 µM
[42] = second compound 0.316 µM, first compound 0.3 µM
[43] = second compound 1 µM, first compound 0.000949 µM
[44] = second compound 1 µM, first compound 0.003 µM
[45] = second compound 1 µM, first compound 0.00949 µM
[46] = second compound 1 µM, first compound 0.03 µM
[47] = second compound 1 µM, first compound 0.0949 µM
[48] = second compound 1 µM, first compound 0.3 µM
[49] = second compound 3.16 µM, first compound 0.000949 µM
[50] = second compound 3.16 µM, first compound 0.003 µM
[51] = second compound 3.16 µM, first compound 0.00949 µM
[52] = second compound 3.16 µM, first compound 0.03 µM
[53] = second compound 3.16 µM, first compound 0.0949 µM
[54] = second compound 3.16 µM, first compound 0.3 µM
[55] = second compound 10 µM, first compound 0.000949 µM
[56] = second compound 10 µM, first compound 0.003 µM
[57] = second compound 10 µM, first compound 0.00949 µM
[58] = second compound 10 µM, first compound 0.03 µM
[59] = second compound 10 µM, first compound 0.0949 µM
[60] = second compound 10 µM, first compound 0.3 µM
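Also: spheroids exposed to compounds for seven days before readout.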

C=CC(=O)N1CCN(c2nc(OCC3CCCN3C)nc3c(F)c(-c4nc(N)cc(C)c4C(F)(F)F)c(Cl)cc23)C(C)C1 (stereo not drawn) + C#Cc1c(F)ccc2cc(O)cc(-c3ncc4c(N5CC6CCC(C5)N6)nc(OCC56CCCN5CC(F)C6)nc4c3F)c12
active: viability, T/C [6] 9.03% | viability, T/C [9] 10.7% | viability, T/C [10] 9.27% | viability, T/C [11] 5.71% | viability, T/C [12] 5.75% | viability, T/C [13] 5.54% | viability, T/C [14] 5.26% | viability, T/C [15] 4.78% | viability, T/C [16] 5.36% | viability, T/C [17] 4.48% | viability, T/C [18] 2.79% | viability, T/C [19] 3.22% | viability, T/C [20] 2.82% | viability, T/C [21] 3.82% | viability, T/C [22] 3.54% | viability, T/C [23] 3.08% | viability, T/C [24] 3.36% | viability, T/C (second compound 3.16 µM, first compound 0.00316 µM) 1.84% | viability, T/C (second compound 3.16 µM, first compound 0.01 µM) 2.35% | viability, T/C (second compound 3.16 µM, first compound 0.0316 µM) 2.16% | viability, T/C (second compound 3.16 µM, first compound 0.1 µM) 1.87% | viability, T/C (second compound 3.16 µM, first compound 0.316 µM) 2.05% | viability, T/C (second compound 3.16 µM, first compound 1 µM) 2.48% | viability, T/C (second compound 10 µM, first compound 0.00316 µM) 1.31% | viability, T/C (second compound 10 µM, first compound 0.01 µM) 1.46% | viability, T/C (second compound 10 µM, first compound 0.0316 µM) 0.83% | viability, T/C (second compound 10 µM, first compound 0.1 µM) 1.21% | viability, T/C (second compound 10 µM, first compound 0.316 µM) 1.13% | viability, T/C (second compound 10 µM, first compound 1 µM) 0.62%
inactive: viability, T/C [1] 24.6% | viability, T/C [2] 16.6% | viability, T/C [3] 20.2% | viability, T/C [4] 20.3% | viability, T/C [5] 10.2% | viability, T/C [7] 14.6% | viability, T/C [8] 9.29%
< 3.16 nM: IC50 (second compound 0.0316 µM) | IC50 (second compound 0.1 µM) | IC50 (second compound 0.316 µM) | IC50 (second compound 1 µM) | IC50 (second compound 3.16 µM) | IC50 (second compound 10 µM)

CC1(C)CCC(Nc2ncc(C(F)(F)F)c(-c3c[nH]c4c(P(C)(C)=O)c(C#N)ccc34)n2)CN1 (stereo not drawn) + C#Cc1c(F)ccc2cc(O)cc(-c3ncc4c(N5CC6CCC(C5)N6)nc(OCC56CCCN5CC(F)C6)nc4c3F)c12
inactive: viability, T/C [25] 22.5% | viability, T/C [26] 20.6% | viability, T/C [27] 14.8% | viability, T/C [28] 14.3% | viability, T/C [29] 11.5% | viability, T/C [30] 10.4% | viability, T/C [31] 12.3%
< 0.949 nM: IC50 (second compound 0.0316 µM) | IC50 (second compound 0.1 µM) | IC50 (second compound 0.316 µM) | IC50 (second compound 1 µM) | IC50 (second compound 3.16 µM) | IC50 (second compound 10 µM)
active: viability, T/C [32] 8.6% | viability, T/C [33] 7.96% | viability, T/C [34] 7.41% | viability, T/C [35] 7.16% | viability, T/C [36] 6.43% | viability, T/C [37] 4.28% | viability, T/C [38] 5.25% | viability, T/C [39] 2.68% | viability, T/C [40] 4.16% | viability, T/C [41] 3.74% | viability, T/C [42] 2.89% | viability, T/C [43] 4.34% | viability, T/C [44] 2.56% | viability, T/C [45] 2.74% | viability, T/C [46] 3.25% | viability, T/C [47] 2.68% | viability, T/C [48] 2.91% | viability, T/C [49] 2.73% | viability, T/C [50] 2.34% | viability, T/C [51] 1.84% | viability, T/C [52] 2.23% | viability, T/C [53] 2.14% | viability, T/C [54] 2.47% | viability, T/C [55] 1.18% | viability, T/C [56] 1.24% | viability, T/C [57] 1.33% | viability, T/C [58] 1.3% | viability, T/C [59] 0.94% | viability, T/C [60] 0.79%

CCc1c2c(nc3ccc(O)cc13)-c1cc3c(c(=O)n1C2)COC(=O)[C@]3(O)CC + C#Cc1c(F)ccc2cc(O)cc(-c3ncc4c(N5CC6CCC(C5)N6)nc(OCC56CCCN5CC(F)C6)nc4c3F)c12
inactive: viability, T/C [25] 19.9% | viability, T/C [26] 11.3% | viability, T/C [31] 10.2%
< 0.949 nM: IC50 (second compound 0.0316 µM) | IC50 (second compound 0.1 µM) | IC50 (second compound 0.316 µM) | IC50 (second compound 1 µM) | IC50 (second compound 3.16 µM) | IC50 (second compound 10 µM)
active: viability, T/C [27] 6.54% | viability, T/C [28] 4.38% | viability, T/C [29] 1.63% | viability, T/C [30] 1.45% | viability, T/C [32] 5.47% | viability, T/C [33] 3.3% | viability, T/C [34] 2.38% | viability, T/C [35] 1.62% | viability, T/C [36] 1.48% | viability, T/C [37] 4.45% | viability, T/C [38] 3.34% | viability, T/C [39] 2.87% | viability, T/C [40] 1.65% | viability, T/C [41] 1.51% | viability, T/C [42] 1.36% | viability, T/C [43] 3.89% | viability, T/C [44] 2.04% | viability, T/C [45] 2.4% | viability, T/C [46] 1.31% | viability, T/C [47] 1.14% | viability, T/C [48] 1.05% | viability, T/C [49] 1.66% | viability, T/C [50] 2.07% | viability, T/C [51] 2.02% | viability, T/C [52] 1.73% | viability, T/C [53] 1.46% | viability, T/C [54] 0.91% | viability, T/C [55] 1.73% | viability, T/C [56] 0.98% | viability, T/C [57] 1.39% | viability, T/C [58] 1.15% | viability, T/C [59] 0.97% | viability, T/C [60] 0.48%

C=CC(=O)Nc1cc(Nc2nccc(-c3cn(C)c4ccccc34)n2)c(OC)cc1N(C)CCN(C)C + C=CC(=O)N1CCN(c2nc(OCC3CCCN3C)nc3c(F)c(-c4nc(N)cc(C)c4C(F)(F)F)c(Cl)cc23)C(C)C1
851 nM: IC50 (second compound 0.0316 µM)
821 nM: IC50 (second compound 0.1 µM)
800 nM: IC50 (second compound 1 µM)
602 nM: IC50 (second compound 0.01 µM)
659 nM: IC50 (second compound 0.00316 µM)
inactive: viability, T/C (second compound 0.00316 µM, first compound 0.00316 µM) 99.4% | viability, T/C (second compound 0.00316 µM, first compound 0.01 µM) 90.1% | viability, T/C (second compound 0.00316 µM, first compound 0.0316 µM) 98.1% | viability, T/C (second compound 0.00316 µM, first compound 0.1 µM) 81.3% | viability, T/C (second compound 0.00316 µM, first compound 0.316 µM) 61% | viability, T/C (second compound 0.00316 µM, first compound 1 µM) 43.9% | viability, T/C (second compound 0.01 µM, first compound 0.00316 µM) 87.6% | viability, T/C (second compound 0.01 µM, first compound 0.01 µM) 86.8% | viability, T/C (second compound 0.01 µM, first compound 0.0316 µM) 87.8% | viability, T/C (second compound 0.01 µM, first compound 0.1 µM) 81.2% | viability, T/C (second compound 0.01 µM, first compound 0.316 µM) 59.9% | viability, T/C (second compound 0.01 µM, first compound 1 µM) 42.2% | viability, T/C [1] 96.7% | viability, T/C [2] 81.5% | viability, T/C [3] 90.7% | viability, T/C [4] 79.1% | viability, T/C [5] 64.6% | viability, T/C [6] 47.5% | viability, T/C [7] 96.4% | viability, T/C [8] 88.8% | viability, T/C [9] 102% | viability, T/C [10] 77.3% | viability, T/C [11] 70% | viability, T/C [12] 46% | viability, T/C [13] 92.1% | viability, T/C [14] 98.3% | viability, T/C [15] 83.8% | viability, T/C [16] 77.9% | viability, T/C [17] 64.8% | viability, T/C [18] 48.4% | viability, T/C [19] 93.2% | viability, T/C [20] 84.1% | viability, T/C [21] 85.2% | viability, T/C [22] 83.9% | viability, T/C [23] 65.6% | viability, T/C [24] 46.2%
905 nM: IC50 (second compound 0.316 µM)
